According to patent US20240327427A1, “NEW COMPOUNDS FOR THE TREATMENT OF ALZHEIMER'S DISEASE” (Icahn School of Medicine at Mount Sinai, priority 2020, published 2024):
“Also recorded” adds a separate entry of the source.

Experiments:
Assay type in all cases: cell-based, human
ATP6V1A [1] = test: ATP6V1A mRNA expression in drug-treated NPCs (LINCS profiles); conditions: drug-treated vs DMSO-treated, LINCS data
Description: Compounds were screened for drugs that can rescue the in vitro and in vivo phenotypes arising from ATP6V1A deficits. Using their drug repositioning tool, Ensemble of Multiple Drug Repositioning Approaches (EMUDRA) (Zhou et al., 2018b), the inventors matched the disease signature from the BM36-PHG region and the signatures of 3,629 drugs tested in the NPCs in the Library of Integrated Network-based Cellular Signatures (LINCS) project (FIG. 6A). The inventors further prioritized candidate drugs by their potential to increase the mRNA expression of ATP6V1A in the NPCs.
To identify existing drugs that can restore the molecular expression change in the LOAD brains, the inventors performed a drug repositioning analysis using EMUDRA, which provides a novel computational algorithm to match disease signatures and drug-induced signatures. The inventors downloaded drug-treated gene expression profiles (level 3 data of quantile-normalized and log 2 transformed expression levels from human iPSC-derived neural progenitor cells (NPCs) from the Library of Integrated Network-Based Cellular Signatures (LINCS) program. After removing probes sets mapping to multiple genes or without known gene annotation, the remaining data were adjusted for batch effects using linear regression. The mean expression level of multiple probe sets that match to the same gene was used as the expression level for that gene. For each drug, the applied drug signature was the transcriptome-wide expression difference between drug-treated and DMSO-treated gene expression profiles. The inventors matched each of the drug signatures to the LOAD signature using EMUDRA to find drugs that could reverse the LOAD signature. […] In total, 3,629 drug signatures were analyzed and ranked. The inventors further prioritized the top-ranked drugs that can increase ATP6V1A mRNA expression in the NPCs.

[2] = tested on: hiPSC-derived NGN2 neurons; test: Multi-electrode array (MEA) neuronal activity
Procedure: To evaluate electrical activity of NGN2-neurons by MEA, density-matched isogenic NGN2-neuronal populations, co-cultured with pHAs, were prepared as described above. Specifically, at day 3, pHAs were split as 17,000 cells/well in a Matrigel-coated 48W MEA plate (Axion Biosystems, M768-tMEA-48W) and maintained as above. At day 7, NGN2-neurons were detached, spun down and seeded on the pHA culture. Outer space of each well in the plate was filled up with autoclaved/deionized water to minimize the evaporation of marginal wells (“edge effect”) during long-term culture. Half volume of neuronal medium (supplemented with 2% FBS) was replaced with fresh medium including 200 nM Ara-C from day 9 until the end of MEA recording. Electrical activity of neurons was recorded daily during day 14-24. On the recording day, the plate was loaded into the Axion Maestro MEA reader (Axion Biosystems). Recording was performed via AxiS 2.4 for 10 mins. Quantitative analysis of the recording was exported as a Microsoft excel sheet. Data were analyzed using GraphPad PRISM 6 software.
(§1) A stock solution of LQ081-166 (molecular weight: 452.63) at 3 mM is prepared in dimethyl sulfoxide (DMSO). Once prepared, aliquot the stock solution into 100 μL amounts and store at −80° C. Avoid repeated freeze-thaw cycles. The stock is diluted 1000× into neuronal medium to obtain 3 μM for assays. After 24-hour treatment, RNA was extracted from cells for quantitative PCR. In the MEA assay, LQ081-166 was added on neuronal differentiation day 14. Replace with medium containing drug or vehicle every 2-3 days until the final recording day.

ATP6V1A [3] = test: ATP6V1A gene expression-based compound screening (qRT-PCR) in hiPSC-derived NPCs; conditions: for ATP6V1A mRNA level / gene expression: hiPSC-derived NPCs, qRT-PCR vs DMSO
Description: Thirty nine new compounds were synthesized by chemical synthesis and evaluated for their capability to elevate the mRNA level of ATP6V1A and the neuronal activities in hiPSC-derived NPCs. […] These disclosures indicate that the chemical structure to the right in LQ081-166 has a structure-activity relationship necessary for ATP6V1A activation.
To identify useful drugs for targeting this novel therapeutic target, the inventors synthesized 39 new compounds by chemical synthesis and evaluated their capability of elevating the mRNA level of ATP6V1A and neuronal activity in hiPSC-derived NPCs.
To improve the potency and efficacy of the drugs, an additional 18 derivatives based on LQ081-166 were synthesized (FIG. 7B). […] The inventors determined that the thioester and benzyl group in LQ081-166 has a structure-activity relationship necessary for ATP6V1A activation.
FIG. 7. ATP6V1A gene expression-based compounds screening. (A) qRT-PCR analysis (N=3-12) to determine the relative changes in ATP6V1A gene expression after exposure to 40 chemical compounds. ****, p<0.0001 (one-way ANOVA). DMSO serves as vehicle control. (B) Molecular modification of LQ081-166 and chemical structure of LQ108-32. (C) qRT-PCR analysis of relative ATP6V1A gene expression after exposure to LQ081-166 derivatives. Grey scale bars in the graph are associated with the categories of molecular modification. Note that LQ108-51/52/53 is a small pool of three LQ081-166 derivatives. (D) Effects of LQ081-166 at 0.3, 1, 3, and 10 μM on ATP6V1A mRNA level after 24-h exposure. *, p<0.05; **, p<0.01 (one-way ANOVA).
Quantitative reverse transcription PCR (qRT-PCR) was performed as previously described. […] Quantitative transcript analysis was performed using a QuantStudio 7 Flex Real-Time PCR System with the Power SYBR Green RNA-to-Ct Real-Time qPCR Kit (all Thermo Fisher Scientific). […]
A stock solution of LQ081-166 (molecular weight: 452.63) at 3 mM is prepared in dimethyl sulfoxide (DMSO). […] After 24-hour treatment, RNA was extracted from cells for quantitative PCR. […]

ATP6V1A [4] = test: ATP6V1A mRNA (qRT-PCR) and protein (western blot) levels in hiPSC-derived NGN2 neurons (iNs); conditions: for transcriptional and translational levels of ATP6V1A: D21 iNs, concentrations between 1 and 30 μM
Procedure: To verify this discovery, the inventors measured the transcriptional and translational levels of ATP6V1A in D21 iNs treated with the 3 HDAC inhibitors at a series of concentrations between 1 and 30 μM.
CRISPR inhibition (CRISPRi) was used to repress endogenous ATP6V1A in hiPSC-derived NGN2 neurons. […] Next, the inventors investigated whether LQ081-166 rescued the phenotypes of ATP6V1A deficit and reduced neuronal activity.
Quantitative reverse transcription PCR (qRT-PCR) was performed as previously described. Specifically, cell cultures were harvested with Trizol and total RNA extraction was carried out following the manufacturer's instructions. Quantitative transcript analysis was performed using a QuantStudio 7 Flex Real-Time PCR System with the Power SYBR Green RNA-to-Ct Real-Time qPCR Kit (all Thermo Fisher Scientific). Total RNA template (25 ng per reaction) was added to the PCR mix, including primers listed below. qPCR conditions were as follows; 48° C. for 30 min, 95° C. for 10 min followed by 40 cycles (95° C. for 15 s, 60° C. for 60 s). All qPCR data is collected from at least 3 independent biological replicates of one experiment. Data analyses were performed using GraphPad PRISM 6 software.
Cells were rinsed with ice-cold phosphate-buffered saline (PBS), pelleted, and lyzed in RIPA Lysis and Extraction Buffer (Thermo Fisher Scientific, #89900) containing Halt™ Protease and Phosphatase Inhibitor Cocktail (Thermo Fisher Scientific, #78440). Alternatively, MSBB BM36 brain samples were homogenized with similar methods. Samples were sonicated for 1 minute then centrifuged at 13,000× rpm for 10 min. The supernatant was collected, and total protein concentration was determined using Quick Start™ Bradford Protein Assay (Bio-Rad, 5000201) following the manufacturer's instructions.
Images were captured and quantified using the Odyssey® Imaging Systems (LI-COR. Inc.).
as §1

| SMILES | ATP6V1A (log2FC) (ATP6V1A [1]) | further results |
| --- | --- | --- |
| CC[C@H]1CN2CCc3cc(OC)c(OC)cc3C2C[C@@H]1CC1NCCc2cc(OC)c(OC)cc21 (stereo partly shown) [BRD-A25687296] | 2.37 | – |
| C[C@@H]1O[C@@H](O[C@@H]2C=C3CCC4C(CC[C@]5(C)[C@@H](c6ccc(=O)oc6)CC[C@]45O)[C@@]3(C)CC2)[C@H](O)[C@H](O)[C@H]1O (stereo partly shown) [BRD-A34806832] | 1.49 | – |
| CC1CC(C)C(=O)C(C(O)CC2CC(=O)NC(=O)C2)C1 (stereo not shown) [BRD-A62184259] | 1.46 | – |
| C[C@@H]1C[C@@H]([C@H](O)CC2CC(=O)NC(=O)C2)C(=O)[C@@H](C)C1 [BRD-K36055864] | 2.00 | – |
| C[C@@H]1CN([C@@H](C)CO)C(=O)c2cccc(NC(=O)c3ccc(-c4nccs4)cc3)c2O[C@@H]1CN(C)Cc1ccc(C(=O)Nc2ccccc2N)cc1 [BRD-K56196992] | 1.47 | – |
| Nc1ccccc1NC(=O)c1ccc(CNC(=O)OCc2cccnc2)cc1 [BRD-K77908580] | 1.54 | – |
| CC[C@H]1CN2CCc3cc(OC)c(OC)cc3[C@@H]2C[C@@H]1C[C@H]1NCCc2cc(O)c(OC)cc21 [BRD-K80348542] | 1.09 | – |
| C[C@]12CC[C@H]3[C@@H](CC[C@]4(O)C[C@@H](O)CC[C@]34C=O)[C@@]1(O)CC[C@@H]2C1=CC(=O)OC1 [BRD-K84595254] | 2.98 | – |
| O=C(CCCCCCSC(=O)CCc1ccccc1)Nc1nc(-c2ccccc2)cs1 [LQ081-166, S-(7-oxo-7-((4-phenylthiazol-2-yl)amino)heptyl) 3-phenylpropanethioate] | – | restoration of neuronal activity (MEA) ([2]; ATP6V1A KD neurons, regardless of presence/absence of Aβ exposure, 3 μM): partially restoring neuronal activity; neuronal activity (MEA) ([2]; NGN2 neurons, 3 μM LQ081-166): potent activator of neuronal activity; dose dependence of effect on ATP6V1A mRNA level (ATP6V1A [3]; 0.3, 1, 3 and 10 μM, 24-h exposure): dose-dependent effect; ATP6V1A mRNA level / gene expression (ATP6V1A [3]): most significantly increased; ATP6V1A mRNA level (ATP6V1A [4]; ATP6V1A KD hiPSC-derived NGN2 neurons): restores ATP6V1A mRNA level; ATP6V1A mRNA level (ATP6V1A [4]; NGN2 neurons, 3 μM, 24 hours): significantly increased |
| O=C(CCCCCCC(=O)SCCc1ccccc1)Nc1nc(-c2ccccc2)cs1 [LQ108-32, S-phenethyl 8-oxo-8-((4-phenylthiazol-2-yl)amino)octanethioate] | – | ATP6V1A mRNA level / gene expression (ATP6V1A [3]; listed as LQ081-32): did not affect; also recorded: inability to affect |
| Nc1ccccc1NC(=O)c1ccc(CNC(=O)OCc2cccnc2)cc1 [MS-275] | – | transcriptional and translational levels of ATP6V1A (ATP6V1A [4]): ineffective |
| O=C(CCCCCCC(=O)Nc1ccccc1)NO [SAHA] | 0.77 | transcriptional and translational levels of ATP6V1A (ATP6V1A [4]): ineffective |
| CCC(=O)CCCCC[C@@H]1NC(=O)[C@H]2CCCCN2C(=O)[C@H]([C@@H](C)CC)NC(=O)[C@H](Cc2cn(OC)c3ccccc23)NC1=O [apicidin] | 0.99 | – |
| CN(C)c1ccc(C(=O)NCCCCCCC(=O)NO)cc1 [m-344] | 0.84 | – |
| O=C(CCCCCN1C(=O)c2cccc3cccc(c23)C1=O)NO [scriptaid] | 0.78 | – |
| CC(/C=C/C(=O)NO)=C\[C@@H](C)C(=O)c1ccc(N(C)C)cc1 [trichostatin a] | 0.61 | – |
